Reference: publication PMC3307315 (The Journal of Biological Chemistry, 2012)

B1: GLUE-WTX: N-terminal streptavidin-binding protein, calmodulin-binding protein, the hemagglutinin epitope (HA), and WTX (protein, UniProt Q5JTC6 1-1135, looked up)
APC membrane recruitment …: METQKDEAAQAKGAAASGSTREQTAEKGAKNKAAEATEGPTSEPSSSGPGRLKKTAMKLFGGKKGICTLPSFFGGGRSKGSGKGSSKKGLSKSKTHDGLSEAAHGPEDVVSEGTGFSLPLPELPCQFPSSQSAHGALETGSRCKTSVAGATEKAVAEKFPSMPKPKKGLKGFFSSIRRHRKSKVTGAEQSEPGAKGPERVRARPHEHVSSAPQVPCFEETFQAPRKENANPQDAPGPKVSPTPEPSPPATEKMACKDPEKPMEACASAHVQPKPAPEASSLEEPHSPETGEKVVAGEVNPPNGPVGDPLSLLFGDVTSLKSFDSLTGCGDIIAEQDMDSMTDSMASGGQRANRDGTKRSSCLVTYQGGGEEMALPDDDDEEEEEEEEVELEEEEEEVKEEEEDDDLEYLWETAQMYPRPNMNLGYHPTTSPGHHGYMLLDPVRSYPGLAPGELLTPQSDQQESAPNSDEGYYDSTTPGFEDDSGEALGLVRRDCLPRDSYSGDALYEFYEPDDSLENSPPGDDCLYDLHGRSSEMFDPFLNFEPFLSSRPPGAMETEEERLVTIQKQLLYWELRREQLEAQEARAREAHAREAHAREAYTREAYGREAYAREAHTWEAHGREARTREAQAREVRCRETQVRETQARQEKPVLEYQMRPLGPSVMGLAAGVSGTSQISHRGITSAFPTTASSEPDWRDFRPLEKRYEGTCSKKDQSTCLMQLFQSDAMFEPDMQEANFGGSPRRAYPTYSPPEDPEEEEVEKEGNATVSFSQALVEFTSNGNLFSSMSCSSDSDSSFTQNLPELPPMVTFDIADVERDGEGKCEENPEFHNDEDLAASLEAFELGYYHKHAFNNYHSRFYQGLPWGVSSLPRYLGLPGLHPRPPPAAMALNRRSRSLDTAETLEMELSNSHLVQGYLESDELQAQQEDSDEEDEEEEEGEWSRDSPLSLYTEPPGAYDWPAWAPCPLPVGPGPAWISPNQLDRPSSQSPYRQATCCIPPMTMSISLSVPESRAPGESGPQLARPSHLHLPMGPCYNLQPQASQSMRARPRDVLLPVDEPSCSSSSGGFSPSPLPQAKPVGITHGIPQLPRVRPEHPQPQPTHYGPSSLDLSKERAEQGASLATSYSSTAMNGNLAK
modifications: streptavidin-binding, calmodulin-binding peptide and HA tags

Key:
HEK293T cells = assay: Cell viability; assay type: cell-based; conditions: siRNA knockdown, etoposide, MTT (Fig. 2E)
NRF2 = conditions: cited from earlier work
35S-labeled NRF2 = assay type: biochemical; conditions: HEK293T cell-free extracts
endogenous KEAP1 = assay: Streptavidin affinity pulldown of GLUE-WTX and Western blot, endogenous KEAP1; assay type: cell-based

Molecule | resistance to apoptosis-inducing reagents (conclusion) (HEK293T cells) | half-life of exogenous and endogenous NRF2 in intact cells (NRF2) [h] | half-life of exogenous NRF2 in cell extracts (35S-labeled NRF2) [h] | complex with endogenous KEAP1 (endogenous KEAP1)
NRF2: transcription factor NF-E2-related factor-2 | promote resistance to apoptotic inducing reagents | ~0.333 | ~6 | 
B1 |  |  |  | endogenous KEAP1 forms a complex with GLUE-WTX
